# From patent US8334382B2, “Substituted biaryl piperazinyl-pyridine analogues” (Neurogen Corporation, priority 2004, dated 2012)
# Target: T1, human capsaicin receptor (Homo sapiens, UniProt Q8NER1)
# T1 construct: expressed in transfected cells; host or cells: HEK293, stably transfected with pBK-CMV construct
# Assay: Calcium mobilization assay, determination of antagonist activity
# Assay type: cell-based
# Details: capsaicin at EC50; cells expressing human capsaicin receptor; Example 6
# Procedure, shortened: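 IC50 is the antagonist level giving a 50% drop in the capsaicin (EC50) calcium signal, read by FLIPR in Fluo-3 AM-loaded stable HEK293 lines bearing full-length human receptor. Compounds at 1-5 µM final were preincubated 0.5-6 h, room temperature, dark, in KRH pH 7.4.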
# T1 sequence (Q8NER1 whole entry): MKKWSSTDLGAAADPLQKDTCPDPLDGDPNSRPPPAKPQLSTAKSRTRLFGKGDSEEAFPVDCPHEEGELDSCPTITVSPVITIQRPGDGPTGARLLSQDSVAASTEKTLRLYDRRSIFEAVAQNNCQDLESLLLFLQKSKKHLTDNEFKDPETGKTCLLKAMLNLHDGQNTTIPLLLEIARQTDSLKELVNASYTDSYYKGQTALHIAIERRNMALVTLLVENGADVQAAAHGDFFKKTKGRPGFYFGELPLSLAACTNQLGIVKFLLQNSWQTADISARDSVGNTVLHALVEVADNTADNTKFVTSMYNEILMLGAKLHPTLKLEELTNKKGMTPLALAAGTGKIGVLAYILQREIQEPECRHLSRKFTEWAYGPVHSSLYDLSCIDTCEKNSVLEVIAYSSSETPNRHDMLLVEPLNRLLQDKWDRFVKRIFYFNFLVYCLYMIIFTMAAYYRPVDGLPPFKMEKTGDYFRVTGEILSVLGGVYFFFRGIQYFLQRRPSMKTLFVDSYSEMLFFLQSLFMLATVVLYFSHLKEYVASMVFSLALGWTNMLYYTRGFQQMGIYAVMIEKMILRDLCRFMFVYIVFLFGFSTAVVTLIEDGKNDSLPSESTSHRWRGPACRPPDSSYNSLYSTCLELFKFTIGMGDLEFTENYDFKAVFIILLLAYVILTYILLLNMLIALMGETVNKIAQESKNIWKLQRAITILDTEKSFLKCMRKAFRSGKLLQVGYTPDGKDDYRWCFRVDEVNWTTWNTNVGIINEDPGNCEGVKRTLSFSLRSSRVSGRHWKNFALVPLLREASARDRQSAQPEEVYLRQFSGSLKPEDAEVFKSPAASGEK
row,SMILES,IC50 [nM]
1,"Cc1cc(C(=O)O)cnc1N1CCN(c2cc(-c3ccc(F)cc3)nc(N3CCC[C@H]3C)c2)[C@H](C)C1 [Example 172, 6-{4-[2-(4-Fluoro-phenyl)-6-(2-(R)-methyl-pyrrolidin-1-yl)-pyridin-4-yl]-3-(R)-methyl-piperazin-1-yl}-5-methyl-nicotinic acid]",≤ 1000
2,"C[C@@H]1CN(c2ncc(CO)cc2Cl)CCN1c1cc(-c2ccc(F)c(Cl)c2)nc(N2CCCCC2)n1 [Example 173, (5-Chloro-6-{4-[6-(3-chloro-4-fluoro-phenyl)-2-piperidin-1-yl-pyrimidin-4-yl]-3-(R)-methyl-piperazin-1-yl}-pyridin-3-yl)-methanol]",≤ 1000
3,"CCOC(=O)c1cnc(N2CCN(c3cc(-c4ccc(F)c(Cl)c4)nc(N4CCC[C@H]4C)n3)C[C@H]2C)c(Cl)c1 [Example 174, 5-Chloro-6-{4-[6-(3-chloro-4-fluoro-phenyl)-2-(2-(R)-methyl-pyrrolidin-1-yl)-pyrimidin-4-yl]-2-(R)-methyl-piperazin-1-yl}-nicotinic acid ethyl ester]",≤ 1000
4,"Cc1cc(C(=O)O)cnc1N1CCN(c2cc(-c3cccc(Cl)c3)nc(N3CCC[C@H]3C)c2)[C@H](C)C1 [Example 175, 6-{4-[2-(3-Chloro-phenyl)-6-(2-(R)-methyl-pyrrolidin-1-yl)-pyridin-4-yl]-3-(R)-methyl-piperazin-1-yl}-5-methyl-nicotinic acid]",≤ 1000
5,"Cc1cc(-c2cc(N3CCN(c4ncc(C(=O)O)cc4C)C[C@H]3C)cc(N3CCC[C@H]3C)n2)ccc1F [Example 176, 6-{4-[2-(4-Fluoro-3-methyl-phenyl)-6-(2-(R)-methyl-pyrrolidin-1-yl)-pyridin-4-yl]-3-(R)-methyl-piperazin-1-yl}-5-methyl-nicotinic acid]",≤ 1000
6,"C[C@@H]1CCCN1c1nc(-c2ccc(F)cc2)cc(N2CCN(c3ncc(C(=O)O)cc3C(F)(F)F)CC2)n1 [Example 177, 6-{4-[6-(4-Fluoro-phenyl)-2-(2-(R)-methyl-pyrrolidin-1-yl)-pyrimidin-4-yl]-piperazin-1-yl}-5-trifluoromethyl-nicotinic acid]",≤ 1000
7,"Cc1cc(C(=O)O)cnc1N1CCN(c2cc(-c3ccc(F)c(Cl)c3)nc(N3CCC[C@H]3C)c2)[C@H](C)C1 [Example 178, 6-{4-[2-(3-Chloro-4-fluoro-phenyl)-6-(2-(R)-methyl-pyrrolidin-1-yl)-pyridin-4-yl]-3-(R)-methyl-piperazin-1-yl}-5-methyl-nicotinic acid]",≤ 1000
8,"C[C@@H]1CN(c2ncc(C(=O)O)cc2C(F)(F)F)CCN1c1cc(-c2ccc(F)cc2)nc(N2CCC[C@H]2C)n1 [Example 179, 6-{4-[6-(4-Fluoro-phenyl)-2-(2-(R)-methyl-pyrrolidin-1-yl)-pyrimidin-4-yl]-3-(R)-methyl-piperazin-1-yl}-5-trifluoromethyl-nicotinic acid]",≤ 1000
9,"Cc1cc(C(=O)O)cnc1N1CCN(c2cc(-c3cncc(Cl)c3)nc(N3CCC[C@H]3C)c2)[C@H](C)C1 [Example 180, 6-{4-[5′-Chloro-6-(2-(R)-methyl-pyrrolidin-1-yl)-[2,3′]bipyridinyl-4-yl]-3-(R)-methyl-piperazin-1-yl}-5-methyl-nicotinic acid]",≤ 1000
10,"Cc1cc(CCO)cnc1N1CCN(c2cc(-c3ccc(F)cc3)nc(N3CCC[C@H]3C)n2)[C@H](C)C1 [Example 181, 2-[6-((3R)-4-{6-(4-fluorophenyl)-2-[(2R)-2-methyl-1-pyrrolidinyl]-4-pyrimidinyl}-3-methyl-1-piperazinyl)-5-methyl-3-pyridinyl]ethanol]",≤ 1000
11,"Cc1cc(OCCO)cnc1N1CCN(c2cc(-c3ccc(F)c(Cl)c3)nc(N3CCC[C@H]3C)n2)[C@H](C)C1 [Example 182, 2-{[6-((3R)-4-{6-(3-chloro-4-fluorophenyl)-2-[(2R)-2-methyl-1-pyrrolidinyl]-4-pyrimidinyl}-3-methyl-1-piperazinyl)-5-methyl-3-pyridinyl]oxy}ethanol]",≤ 1000
12,"C[C@@H]1CN(c2ncc(OCCO)cc2Cl)CCN1c1cc(-c2ccc(F)c(Cl)c2)nc(N2CCC[C@H]2C)n1 [Example 183, 2-{[5-chloro-6-((3R)-4-{6-(3-chloro-4-fluorophenyl)-2-[(2R)-2-methylpyrrolidin-1-yl]pyrimidin-4-yl}-3-methylpiperazin-1-yl)pyridin-3-yl]oxy}ethanol]",≤ 1000
13,"Cc1cc(OCCO)cnc1N1CCN(c2cc(-c3ccc(F)cc3)nc(N3CCC[C@H]3CO)n2)[C@H](C)C1 [Example 184, 2-{[6-((3R)-4-{6-(4-fluorophenyl)-2-[(2S)-2-(hydroxymethyl)pyrrolidin-1-yl]pyrimidin-4-yl}-3-methylpiperazin-1-yl)-5-methylpyridin-3-yl]oxy}ethanol]",≤ 1000
14,"C[C@@H]1CN(c2ncc(CCO)cc2Cl)CCN1c1cc(-c2ccc(F)c(Cl)c2)nc(N2CCC[C@H]2C)n1 [Example 185, 2-[5-chloro-6-((3R)-4-{6-(3-chloro-4-fluorophenyl)-2-[(2R)-2-methylpyrrolidin-1-yl]pyrimidin-4-yl}-3-methylpiperazin-1-yl)pyridin-3-yl]ethanol]",≤ 1000
15,"C[C@@H]1CN(c2ncc(CCN(C)C)cc2Cl)CCN1c1cc(-c2ccc(F)c(Cl)c2)nc(N2CCC[C@H]2C)n1 [Example 186, 2-[5-chloro-6-((3R)-4-{6-(3-chloro-4-fluorophenyl)-2-[(2R)-2-methylpyrrolidin-1-yl]pyrimidin-4-yl}-3-methylpiperazin-1-yl)pyridin-3-yl]-N,N-dimethylethanamine]",≤ 1000
16,"CNCCc1cnc(N2CCN(c3cc(-c4ccc(F)c(Cl)c4)nc(N4CCC[C@H]4C)n3)[C@H](C)C2)c(Cl)c1 [Example 187, 2-[5-chloro-6-((3R)-4-{6-(3-chloro-4-fluorophenyl)-2-[(2R)-2-methylpyrrolidin-1-yl]pyrimidin-4-yl}-3-methylpiperazin-1-yl)pyridin-3-yl]-N-methylethanamine]",≤ 1000
17,"Cc1cc(C#N)cnc1N1CCN(c2cc(-c3ccc(F)cc3)nc(N3CCC[C@H]3C)n2)[C@H](C)C1 [Example 188, 6-((3R)-4-{6-(4-fluorophenyl)-2-[(2R)-2-methyl-1-pyrrolidinyl]-4-pyrimidinyl}-3-methyl-1-piperazinyl)-5-methylnicotinonitrile]",≤ 1000
18,"Cc1cccnc1N1CCN(c2nc(N3CCC[C@H]3C)nc(-c3ccc(F)cc3)c2F)[C@H](C)C1 [Example 189, 5-fluoro-4-(4-fluorophenyl)-6-[(2R)-2-methyl-4-(3-methylpyridin-2-yl)piperazin-1-yl]-2-[(2R)-2-methylpyrrolidin-1-yl]pyrimidine]",≤ 1000

# Target: VR
# Assay: not given
# Details: binds to VR with no more than moderate affinity; cited from earlier work
row,SMILES,Ki [nM]
1,Cl.Cl.Cl.Cl.Cl.Cl.N.N.N.N.N.N.N.N.N.N.N.N.N.N.[O-2].[O-2].[Ru+3].[Ru+3].[Ru+4] [ruthenium red],≥ 140000
